Consider 61 molecules from ChEMBL document CHEMBL5241054, “Effective anti-aromatase therapy to battle against estrogen-mediated breast cancer: Comparative SAR/QSAR assessment on steroidal aromatase inhibitors” (Eur J Med Chem, 2020).

The target in the assay is T1, Aromatase (Homo sapiens, UniProt P11511).
T1 sequence (P11511 whole entry): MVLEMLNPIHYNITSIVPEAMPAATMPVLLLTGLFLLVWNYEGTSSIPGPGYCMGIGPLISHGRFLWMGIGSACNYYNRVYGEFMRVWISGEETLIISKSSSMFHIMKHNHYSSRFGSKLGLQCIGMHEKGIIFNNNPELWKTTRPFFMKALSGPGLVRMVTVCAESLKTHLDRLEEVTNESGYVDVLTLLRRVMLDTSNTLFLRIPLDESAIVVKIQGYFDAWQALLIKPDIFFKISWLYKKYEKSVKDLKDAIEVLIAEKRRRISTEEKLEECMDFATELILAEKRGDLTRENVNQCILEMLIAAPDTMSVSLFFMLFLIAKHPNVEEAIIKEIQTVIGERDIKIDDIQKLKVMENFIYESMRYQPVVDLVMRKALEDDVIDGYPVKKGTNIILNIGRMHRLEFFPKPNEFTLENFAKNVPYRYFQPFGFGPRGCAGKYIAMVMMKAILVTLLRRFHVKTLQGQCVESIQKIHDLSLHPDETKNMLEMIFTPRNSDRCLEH
One may read the IC50 as the point on the concentration scale where inhibition reaches its midpoint. As to `C[C@]12CCCCC1=CC[C@@H]1[C@@H]2CC[C@]2(C)C(=O)CC[C@@H]12`, it took 681 nM to reach half-maximal inhibition (IC50).

In turn, `C[C@]12C=CC(=O)C(Sc3ccccc3)=C1C=C[C@@H]1[C@@H]2CC[C@]2(C)C(=O)CC[C@@H]12` showed an IC50 of 65 nM.

Take `CC1(C)C[C@@]2(C)C(=C(O)C1=O)C(=O)C[C@@H]1[C@@H]2CC[C@]2(C)C(=O)CC[C@@H]12`: the half-inhibitory concentration (IC50) is 440 nM.

In turn, `C[C@]12CCC(=O)C(F)=C1CC[C@@H]1[C@@H]2CC[C@]2(C)C(=O)CC[C@@H]12` had an IC50 of 480 nM.

`C[C@]12CCC(=O)C(Sc3ccccc3)=C1C=C[C@@H]1[C@@H]2CC[C@]2(C)C(=O)CC[C@@H]12` gave an IC50 of 25 nM.

For `C[C@]12CCC(=O)C(O)=C1C=C[C@@H]1[C@@H]2CC[C@]2(C)C(=O)CC[C@@H]12`, the IC50 is 1000 nM.

Regarding `C[C@]12CC[C@H]3[C@@H](CCC4=CC(=O)CC[C@@]43C(F)F)[C@@H]1CCC2=O`, inhibition was half-maximal at 4000 nM (IC50).

`CC1(C)C[C@@]2(C)C(=CC1=O)C(=O)C[C@@H]1[C@@H]2CC[C@]2(C)C(=O)CC[C@@H]12` had an IC50 of 300 nM.

For `C[C@]12CCC(=O)C(O)=C1C(=O)C[C@@H]1[C@@H]2CC[C@]2(C)C(=O)CC[C@@H]12`, the half-inhibitory concentration (IC50) was 460 nM.

The molecule `CC[C@]12CCC(=O)C=C1CC[C@@H]1[C@@H]2CC[C@]2(C)C(=O)CC[C@@H]12` gave an IC50 of 300 nM.

`C[C@]12CCC(=O)C=C1[C@H](O)C[C@@H]1[C@@H]2CC[C@]2(C)C(=O)CC[C@@H]12` gave an IC50 of 11000 nM.

Molecule `C[C@]12CCC(=O)C=C1[C@@H](O)C[C@@H]1[C@@H]2CC[C@]2(C)C(=O)CC[C@@H]12` gave an IC50 of 15000 nM.

Regarding `C[C@]12CC[C@H]3[C@@H](CCC4=CC(=O)CC[C@@]43CF)[C@@H]1CCC2=O`, the IC50 is 3000 nM.

Take `C[C@]12CC[C@H]3[C@@H](CCC4=CC(=O)CC[C@@]43CCCl)[C@@H]1CCC2=O`: the IC50 is 8000 nM.

As to `CCC1C[C@H]2[C@@H]3CC[C@H](O)[C@@]3(C)CC[C@@H]2[C@@]2(C)CCC(=O)C=C12` (stereo partly specified), inhibition was half-maximal at 52 nM (IC50).

In the case of `CCCCC1C[C@H]2[C@@H]3CC[C@H](O)[C@@]3(C)CC[C@@H]2[C@@]2(C)CCC(=O)C=C12` (stereo partly specified), the half-maximal inhibitory concentration (IC50) was 48 nM.

`C[C@]12CC[C@H]3[C@@H](CCC4=CC(=O)CC[C@@]43CC#N)[C@@H]1CCC2=O` gave an IC50 of 2600 nM.

With `C[C@]12CC[C@@H]3C4CCC(=O)C(F)=C4CC[C@H]3[C@@H]1CCC2=O` (stereo partly specified), the IC50 is 400 nM.

As for `C[C@]12CC[C@H]3[C@@H](CCC4=C(O)C(=O)CC[C@@]43C(F)F)[C@@H]1CCC2=O`, half-maximal inhibition (IC50) was put at 2500 nM.

Take `C[C@]12C=C(O)C(=O)C=C1C(=O)C[C@@H]1[C@@H]2CC[C@]2(C)C(=O)CC[C@@H]12`: inhibition was half-maximal at 5600 nM (IC50).

As to `CCCCC1C[C@H]2[C@@H]3CC[C@H](O)[C@@]3(C)CC[C@@H]2[C@@]2(C)C=CC(=O)C=C12` (stereo partly specified), the IC50 was 64 nM.

Turning to `COC1=C2C(=O)C[C@@H]3[C@H](CC[C@]4(C)C(=O)CC[C@@H]34)[C@@]2(C)CCC1=O`, inhibition was half-maximal at 2000 nM (IC50).

The molecule `C[C@]12C=CC(=O)C=C1C(CCCCc1ccccc1)=C[C@@H]1[C@@H]2CC[C@]2(C)C(=O)CC[C@@H]12` gave an IC50 of 150 nM.

The molecule `COC1=C2C=C[C@@H]3[C@H](CC[C@]4(C)C(=O)CC[C@@H]34)[C@@]2(C)CCC1=O` showed a concentration for half-maximal inhibition (IC50) of 11000 nM.

`C[C@]12CC[C@H]3[C@@H](CCC4=CC(=O)CC[C@@]43CC(F)F)[C@@H]1CCC2=O` gave an IC50 of 4000 nM.

`CCOC1=C2C(=O)C[C@@H]3[C@H](CC[C@]4(C)C(=O)CC[C@@H]34)[C@@]2(C)CCC1=O` showed an IC50 of 4500 nM.

Regarding `C[C@]12C[C@@H](F)C(=O)C=C1[C@H](F)C[C@@H]1[C@@H]2CC[C@]2(C)C(=O)CC[C@@H]12`, the IC50 was 1000 nM.

For `C[C@]12CC[C@H]3[C@@H](CCC4=CC(=O)C(O)C[C@@]43C(F)F)[C@@H]1CCC2=O` (stereo partly specified), the IC50 is 3800 nM.

For `C[C@]12CC[C@H]3[C@@H](CC[C@]4(F)[C@@H](O)C(=O)CC[C@]34C)[C@@H]1CCC2=O`, the IC50 is 2900 nM.

Consider `C[C@]12CCC(=O)C=C1C(=O)[C@@H](O)[C@@H]1[C@@H]2CC[C@]2(C)C(=O)CC[C@@H]12`, for which it took 11000 nM to reach half-maximal inhibition (IC50).

In the case of `C[C@]12CC[C@H]3[C@@H](CCC4=CC(=O)CC[C@@]43C#N)[C@@H]1CCC2=O`, the midpoint of inhibition, the IC50, lay at 25000 nM.

In turn, `C[C@]12CCC(=O)C=C1[C@H](Br)C[C@@H]1[C@@H]2CC[C@]2(C)C(=O)CC[C@@H]12` showed an IC50 of 800 nM.

Take `C[C@]12C=CC(=O)C=C1[C@@H](CCCCCc1ccccc1)C[C@@H]1[C@@H]2CC[C@]2(C)C(=O)CC[C@@H]12`: half-maximal inhibition (IC50) was put at 330 nM.

The molecule `C[C@]12CC[C@H]3[C@@H](CCC4=CC(=O)CC[C@@]43CCF)[C@@H]1CCC2=O` gave an IC50 of 700 nM.

`CC(=O)O[C@@H]1C(=O)C2=CC(=O)CC[C@]2(C)[C@H]2CC[C@]3(C)C(=O)CC[C@H]3[C@H]12` displayed an IC50 of 5300 nM.

With `C[C@]12C=CC(=O)C=C1[C@@H](CCCc1ccccc1)C[C@@H]1[C@@H]2CC[C@]2(C)C(=O)CC[C@@H]12`, 511 nM corresponded to half-maximal inhibition (IC50).

Consider `COC1=C2C(=O)C[C@@H]3[C@H](CC[C@]4(C)C(=O)CC[C@@H]34)[C@@]2(C)CC(C)(C)C1=O`, for which 1900 nM corresponded to half-maximal inhibition (IC50).

Molecule `CC(=O)OC1=C2CC[C@@H]3[C@H](CC[C@]4(C)C(=O)CC[C@@H]34)[C@@]2(C)CCC1=O` gave an IC50 of 1500 nM.

Regarding `CCC1C[C@H]2[C@@H]3CC[C@H](O)[C@@]3(C)CC[C@@H]2[C@@]2(C)C=CC(=O)C=C12` (stereo partly specified), half-maximal inhibition (IC50) required 61.9 nM.

For `CC(=O)OC1=C2C=C[C@@H]3[C@H](CC[C@]4(C)C(=O)CC[C@@H]34)[C@@]2(C)CCC1=O`, the IC50 was 8000 nM.

Turning to `C[C@]12C=CC(=O)C=C1[C@H](CCCCCc1ccccc1)C[C@@H]1[C@@H]2CC[C@]2(C)C(=O)CC[C@@H]12`, the concentration for half-maximal inhibition (IC50) was 100 nM.

Molecule `C=C[C@]12CCC(=O)C=C1CC[C@@H]1[C@@H]2CC[C@]2(C)C(=O)CC[C@@H]12` gave an IC50 of 100 nM.

Turning to `C[C@]12CC[C@H]3[C@@H](CCC4=CC(=O)CC[C@@]43C(F)F)[C@@H]1CC[C@@H]2O`, the midpoint of inhibition, the IC50, lay at 420 nM.

As for `C[C@]12C=CC(=O)C=C1[C@@H](Cc1ccccc1)C[C@@H]1[C@@H]2CC[C@]2(C)C(=O)CC[C@@H]12`, 270 nM corresponded to half-maximal inhibition (IC50).

`C[C@]12C=CC(=O)C=C1[C@H](c1ccccc1)C[C@@H]1[C@@H]2CC[C@]2(C)C(=O)CC[C@@H]12` showed an IC50 of 530 nM.

With `COC1=C2CC[C@@H]3[C@H](CC[C@]4(C)C(=O)CC[C@@H]34)[C@@]2(C)CCC1=O`, inhibition was half-maximal at 7190 nM (IC50).

The molecule `C=CC[C@]12CCC(=O)C=C1CC[C@@H]1[C@@H]2CC[C@]2(C)C(=O)CC[C@@H]12` had an IC50 of 1800 nM.

Consider `CCC[C@]12CCC(=O)C=C1CC[C@@H]1[C@@H]2CC[C@]2(C)C(=O)CC[C@@H]12`, for which the half-inhibitory concentration (IC50) is 100000 nM.

Molecule `C[C@]12C=CC(=O)C=C1[C@H](CCc1ccccc1)C[C@@H]1[C@@H]2CC[C@]2(C)C(=O)CC[C@@H]12` showed an IC50 of 579 nM.

The molecule `CC1C[C@H]2[C@@H]3CC[C@H](O)[C@@]3(C)CC[C@@H]2[C@@]2(C)CCC(=O)C=C12` (stereo partly specified) gave an IC50 of 18 nM.

As to `C#C[C@]12CCC(=O)C=C1CC[C@@H]1[C@@H]2CC[C@]2(C)C(=O)CC[C@@H]12`, the IC50 was 1000 nM.

The molecule `CC1C[C@H]2[C@@H]3CC[C@H](O)[C@@]3(C)CC[C@@H]2[C@@]2(C)C=CC(=O)C=C12` (stereo partly specified) showed an IC50 of 67 nM.

Consider `C[C@]12C=CC(=O)C=C1[C@@H](CCCCc1ccccc1)C[C@@H]1[C@@H]2CC[C@]2(C)C(=O)CC[C@@H]12`, for which 230 nM corresponded to half-maximal inhibition (IC50).

The molecule `C[C@]12CC[C@H]3[C@@H](CCC4=CC(=O)CC[C@@]43CCl)[C@@H]1CCC2=O` gave an IC50 of 1400 nM.

`CC(=O)OC1C[C@@]2(C)C(=CC1=O)C(=O)C[C@@H]1[C@@H]2CC[C@]2(C)C(=O)CC[C@@H]12` (stereo partly specified) gave an IC50 of 24000 nM.

`C[C@]12C=CC(=O)C=C1[C@H](CCCCc1ccccc1)C[C@@H]1[C@@H]2CC[C@]2(C)C(=O)CC[C@@H]12` gave an IC50 of 470 nM.

`C[C@]12C=CC(=O)C=C1[C@@H](CCc1ccccc1)C[C@@H]1[C@@H]2CC[C@]2(C)C(=O)CC[C@@H]12` showed an IC50 of 320 nM.

The molecule `C[C@]12C=CC(=O)C=C1[C@@H](c1ccccc1)C[C@@H]1[C@@H]2CC[C@]2(C)C(=O)CC[C@@H]12` had an IC50 of 681 nM.

In turn, `C[C@]12C=CC(=O)C=C1[C@H](CCCc1ccccc1)C[C@@H]1[C@@H]2CC[C@]2(C)C(=O)CC[C@@H]12` gave an IC50 of 700 nM.

The molecule `C[C@]12C=CC(=O)C=C1C(CCCCCc1ccccc1)=C[C@@H]1[C@@H]2CC[C@]2(C)C(=O)CC[C@@H]12` gave a 50% inhibitory concentration (IC50) of 100 nM.

Molecule `C[C@]12C=CC(=O)C=C1[C@H](Cc1ccccc1)C[C@@H]1[C@@H]2CC[C@]2(C)C(=O)CC[C@@H]12` had an IC50 of 590 nM.
